Assay results published in article PMC5491650, “Structure-Activity Relationships of Pentacyclic Triterpenoids as Potent and Selective Inhibitors against Human Carboxylesterase 1” (Frontiers in Pharmacology, 2017).
Entries after “also recorded” stand apart in the source; their conditions may differ.

Assays:
Type in all cases: biochemical
hCE2 = target: T1, hCE2 (Homo sapiens, UniProt O00748); assay: hCE2 inhibition assay, DDAB hydrolysis in human liver microsomes; settings: DDAB as probe substrate, HLM; averages of at least three experiments; read-out: IC50 (hCE2)
T1 construct: tissue Celsis (Shanghai, China); host or cells: human liver microsomes (HLM)
T1 sequence (O00748 27-559): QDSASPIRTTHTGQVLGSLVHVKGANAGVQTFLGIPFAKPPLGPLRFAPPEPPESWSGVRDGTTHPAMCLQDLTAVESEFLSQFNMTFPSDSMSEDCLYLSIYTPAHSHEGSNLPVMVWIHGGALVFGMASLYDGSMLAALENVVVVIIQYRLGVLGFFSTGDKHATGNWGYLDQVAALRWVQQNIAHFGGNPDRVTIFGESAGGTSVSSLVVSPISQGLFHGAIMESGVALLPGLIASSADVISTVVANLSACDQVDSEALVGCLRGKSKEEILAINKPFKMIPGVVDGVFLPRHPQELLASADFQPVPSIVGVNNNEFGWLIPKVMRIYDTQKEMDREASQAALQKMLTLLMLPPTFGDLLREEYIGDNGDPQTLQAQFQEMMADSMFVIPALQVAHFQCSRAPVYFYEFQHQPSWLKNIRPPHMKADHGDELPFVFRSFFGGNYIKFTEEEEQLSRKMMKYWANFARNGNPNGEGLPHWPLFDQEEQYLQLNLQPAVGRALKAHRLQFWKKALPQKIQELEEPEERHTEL
Procedure: (§1) All fluorescence-based assays were performed on Synergy H^1 Hybrid Multi-Mode Microplate Reader (BioTek, USA).
(§2) The inhibitory effects toward CEs were assayed using DME and DDAB as the specific probe substrates for hCE1 and hCE2, respectively. […] Control incubations without BNPP were also performed. After incubation, ice-cold acetonitrile (equal volume of incubation mixture, 200 μL) was added to terminate the reaction. The mixture was then centrifuged at 20,000 g for 20 min at 4°C. All these compounds dissolved in DMSO, and the final concentration of DMSO was <2% (V/V). Aliquots of the supernatant were then taken for further microplate reader analyses. […] First, each of the potential esterase inhibitors was pre-incubated with HLM at 37°C for 10 min with shaking in microplate reader. Then DME was added to start the reaction. After incubation at 37°C for 10 min in a shaking bath, LDR (equal volume of incubation mixture, 50 μL) was added to terminate the reaction, and luminescence measurements were conducted as described above.

hCE1 [1] = target: T2, hCE1 (Homo sapiens, UniProt P23141); assay: Inhibition of hCE1-mediated BMBT hydrolysis in HLMs; set-up: tissue Celsis (Shanghai, China); host or cells: human liver microsomes (HLM)
T2 sequence (P23141 18-567): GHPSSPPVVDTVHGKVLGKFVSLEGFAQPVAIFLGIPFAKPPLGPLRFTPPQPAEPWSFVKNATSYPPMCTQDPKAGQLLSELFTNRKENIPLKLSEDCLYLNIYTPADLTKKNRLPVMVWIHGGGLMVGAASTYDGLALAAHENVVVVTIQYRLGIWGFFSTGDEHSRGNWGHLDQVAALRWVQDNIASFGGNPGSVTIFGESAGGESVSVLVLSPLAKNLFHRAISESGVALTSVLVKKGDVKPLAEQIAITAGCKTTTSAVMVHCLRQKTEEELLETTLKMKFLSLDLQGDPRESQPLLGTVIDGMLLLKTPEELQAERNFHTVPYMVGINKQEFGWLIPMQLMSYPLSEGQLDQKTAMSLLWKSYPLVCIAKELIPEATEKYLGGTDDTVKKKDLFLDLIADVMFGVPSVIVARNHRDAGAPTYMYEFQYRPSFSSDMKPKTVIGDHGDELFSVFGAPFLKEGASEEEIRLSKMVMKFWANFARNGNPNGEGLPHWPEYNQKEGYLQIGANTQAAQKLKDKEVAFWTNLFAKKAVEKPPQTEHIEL
Procedure: The half maximal inhibitory concentration (IC50) of each compound was determined using various inhibitor concentrations under the same incubation conditions as mentioned above. The inhibition constant (Ki) values of compound 22 against hCE1 in HLM were determined using varied concentrations of DME in the presence or absence of each inhibitor. […] Dixon plot and Lineweaver-Burk plots were used to fit the data. The inhibition kinetic type was evaluated by determining the intersection point in the Dixon and Lineweaver-Burk plots. The second plots based on the slopes from Lineweaver-Burk plot vs. inhibitor concentrations were utilized to calculate each the inhibition constant (Ki) value (Wang et al., [2015]; Zhu et al., [2015], [2016]).
To this end, another optical probe substrate (BMBT) for hCE1 was used for further investigation on the inhibition behaviors of compound 22 (Liu et al., [2014]).

hCE1 [2] = target: T2, hCE1; assay: hCE1 inhibition assay, DME hydrolysis in human liver microsomes; set-up: tissue Celsis (Shanghai, China); host or cells: human liver microsomes (HLM);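 note: carboxylesterase inhibition read out as probe hydrolysis, with DME serving as hCE1 substrate and DDAB as hCE2 substrate, in DMSO below 2% (V/V)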
Procedure: as §1, §2

hCE1 [3] = target: T2, hCE1; assay: Inhibition of DME hydrolysis by recombinant hCE1
Procedure: To further investigate the inhibitory behaviors of compound 22 on the catalytic activity of hCE1, the inhibition behaviors of this compound against hCE1 were performed. […] In addition, the inhibitory tendency and potency of compound 22 against DME-hydrolysis in both HLMs and hCE1 were much closed (Figure S1).

- IC50 (hCE2): 83 µM
- IC50 (hCE1 [1]): 30.3 nM
- Ki (hCE1 [1]): 35.5 nM
- inhibition type against hCE1-mediated BMBT hydrolysis (hCE1 [1]; HLMs, Lineweaver-Burk plot): non-competitive inhibitor
- Ki (hCE1 [2]): 12.6 nM
- IC50 (hCE1 [2]; IC50 (hCE1), DME as probe substrate, HLM, averages of at least three experiments): 12 nM
- IC50 (hCE1 [2]; IC50 against hCE1, DME hydrolysis in HLM): 12.6 nM
- Selectivity (hCE1 [2]; calculated from IC50 (hCE2)/IC50 (hCE1) as printed): 6919.2
- selectivity over hCE2 (hCE1 [2]; hCE1 versus hCE2, values of the text): 6,919 fold
- Observed Log(IC50_hCE1) (hCE1 [2]; log of the experimental IC50 in μM, used for 3D-QSAR): -1.921 μM
- IC50 (hCE1 [3]): 9.2 nM
SMILES: CC1CCC2(C(=O)O)CCC3(C)C(=CCC4C5(C)CCC(OC(=O)CCC(=O)O)C(C)(C)C5CCC43C)C2C1C (stereo not drawn) [Compound 22, 3β-O-(β-carboxypropionyl)-urs-12-en-28-oic acid]
- inhibition type against hCE1-mediated DME hydrolysis (hCE1 [2]; HLMs, Lineweaver-Burk plots): competitive inhibitor; also recorded: competitive inhibition
